# Assay results taken from patent US6486199B1, “Spiro and dispiro 1,2,4-trioxolane antimalarials” (Medicines for Malaria Venture MMV International Centre …, priority 2001, dated 2002).
# Where two headings read alike, the source gives them in different places.
# Columns and labels:
# [1] = test system: chloroquine-resistant K1 strain of P. falciparum; assay: in vitro screen against chloroquine-resistant K1 strain of P. falciparum; type: cell-based; settings: for in vitro potency: strains not distinguished; for IC50: Plasmodium falciparum
# [2] = test system: chloroquine-sensitive NF54 strain of P. falciparum; assay: in vitro screen against chloroquine-sensitive NF54 strain of P. falciparum; type: cell-based; settings: for IC50: Plasmodium falciparum
# [3] = differential scanning calorimetry (DSC), thermal stability; type: physicochemical; settings: thermal decomposition
# [4] = test system: ANKA strain of P. Berghei; assay: single dose STI in vivo screen in infected Moro SPF mice; settings: for Activity (%) po / Activity (%) sc: percent reduction in parasitemia day 3 post-infection; for in vivo activity: 10 mg/kg po/sc data of Table 2; for antimalarial activity, overall assessment: overall judgement of in vitro and in vivo data of Table 2
# Description: In the single dose STI in vivo screen, Moro SPF mice infected with the ANKA strain of P. Berghei (groups of three mice) were treated on day one post-infection with trioxolanes dissolved or suspended in 3% ethanol and 7% Tween 80. […] Antimalarial activity was measured by percent redution in parasitemia on day three post-infection and survival times compared to an untreated control group. Survival to day 30 post-infection is considered to be a cure.
# [5] = test system: P. berghei; assay: 1-day Peters test against P. berghei in vivo; settings: 1 day, po
# [6] = single 100 mg/kg po, survival to day 30 = cure
# [7] = single 100 mg/kg sc, survival to day 30 = cure
# [8] = NF54, read-out: IC50 (ng/ml) NF54
smiles,measurement,setting,value
"O=C(O)[C@H]1CC[C@]2(CC1)OOC1(O2)C2CC3CC(C2)CC1C3 (stereo partly drawn) [OZ71, cis-Adamantane-2-spiro-3′-8′-carboxy-1′,2′,4′-trioxaspiro[4.5]decane]",IC50 (ng/ml) K1,"[1]; in vitro, K1 strain",4.5 ng/mL
same,IC50 (ng/ml) NF54,"[2]; in vitro, NF54 strain",3.7 ng/mL
same,Tm dec. (° C.),[3],165.9 °C
"CCO[C@H]1O[C@@H]2O[C@@]3(C)CC[C@H]4[C@H](C)CC[C@@H]([C@H]1C)[C@@]24OO3 [Arteether, arteether, reference compound]",IC50 (ng/ml) NF54,"[2]; in vitro, NF54 strain",0.54 ng/mL
same,Activity (%) po,[4]; single 10 mg/kg po,98%
same,Activity (%) sc,[4]; single 10 mg/kg sc,100%
same,Activity (%) po,[4]; single 100 mg/kg po,99.98%
same,Activity (%) sc,[4]; single 100 mg/kg sc,100%
same,Survival (days) po,[4]; single 10 mg/kg po,8 days
same,Survival (days) sc,[4]; single 10 mg/kg sc,9.7 days
same,Survival (days) po,[4]; [6],12 days
same,Survival (days) sc,[4]; [7],26.3 days
same,P. berghei (1 day) ED50 po,[5],2.4 mg/kg
same,P. berghei (1 day) ED90 po,[5],6.8 mg/kg
"O=C(OCCC1CCC2(CC1)OOC1(O2)C2CC3CC(C2)CC1C3)c1ccc([N+](=O)[O-])cc1 (stereo not drawn) [OZ88, Adamantane-2-spiro-3′-8′-[2′-(4′-nitrobenzoyloxy)ethyl]-1′,2′,4′-trioxaspiro[4.5]decane]",IC50 (ng/ml) NF54,"[2]; in vitro, NF54 strain",/4.2 ng/ml
same,Tm dec. (° C.),[3],158.9 °C
"CCOC(=O)C1CCC2(CC1)OOC1(O2)C2CC3CC(C2)CC1C3 (stereo not drawn) [OZ70, Adamantane-2-spiro-3′-8′-ethoxycarbonyl-1′,2′,4′-trioxaspiro[4.5]decane]",IC50 (ng/ml) K1,"[1]; in vitro, K1 strain",1.2 ng/mL
same,IC50 (ng/ml) NF54,"[2]; in vitro, NF54 strain",1.1 ng/mL
same,Survival (days) po,[4]; single 10 mg/kg po,7.7/7.7 days
same,Survival (days) sc,[4]; single 10 mg/kg sc,7.7/7.7 days
same,Tm dec. (° C.),[3],162.8 °C
"O=C(O)[C@H]1CC[C@@]2(CC1)OOC1(O2)C2CC3CC(C2)CC1C3 (stereo partly drawn) [OZ72, trans-Adamantane-2-spiro-3′-8′-carboxy-1′,2′,4′-trioxaspiro[4.5]decane]",IC50 (ng/ml) K1,"[1]; in vitro, K1 strain",15 ng/mL
same,IC50 (ng/ml) NF54,"[2]; in vitro, NF54 strain",13 ng/mL
same,Tm dec. (° C.),[3],161.9 °C
"c1ccc2c(c1)CCCC21OOC2(O1)C1CC3CC(C1)CC2C3 (stereo not drawn) [OZ84, Adamantane-2-spiro-3′-1′,2′,4′-trioxolane-5′-spiro-1″-3″,4″-dihydro-2″H-naphthalene]",in vitro potency,[1]; in vitro,very active
same,IC50 (ng/ml) NF54,"[2]; in vitro, NF54 strain",/1.9 ng/ml
same,in vivo activity,[4],good
same,Tm dec. (° C.),[3],164.5 °C
"O=S(=O)(c1ccc(F)cc1)N1CCC2(CC1)OOC1(O2)C2CC3CC(C2)CC1C3 (stereo not drawn) [OZ86, Adamantane-2-spiro-3′-8′-(4′-fluorobenzenesulfonyl)-1′,2′,4′-trioxa-8′-azaspiro[4.5]decane]",IC50 (ng/ml) NF54,"[2]; in vitro, NF54 strain",/2.3 ng/ml
same,Tm dec. (° C.),[3],153.0 °C
"c1ccc2c(c1)CCC1(C2)OOC2(O1)C1CC3CC(C1)CC2C3 (stereo not drawn) [OZ85, Adamantane-2-spiro-3′-1′,2′,4′-trioxolane-5′-spiro-2″-3″,4″-dihydro-1″H-naphthalene]",in vitro potency,[1]; in vitro,very active
same,IC50 (ng/ml) NF54,"[2]; in vitro, NF54 strain",/2.0 ng/ml
same,Tm dec. (° C.),[3],152.8 °C
"C1CC2(CCN1)OOC1(O2)C2CC3CC(C2)CC1C3.Cl (stereo not drawn) [OZ80, Adamantane-2-spiro-3′-1′,2′,4′-trioxa-8′-azaspiro[4.5]decane hydrochloride]",IC50,"[1]; K1, read-out: IC50 (ng/ml) K1",< 0.16 ng/mL
same,in vitro potency,[1]; in vitro,quite potent
same,IC50,[2]; [8],0.34 ng/mL
same,in vivo activity,[4],modest
same,Tm dec. (° C.),[3],129.8 °C
"C1CCC2(CC1)OOC1(CCCCC1)O2 [OZ01, 7,14,15-Trioxadispiro[5.1.5.2]pentadecane]",IC50,"[1]; K1, read-out: IC50 (ng/ml) K1",> 100 ng/mL
same,IC50,[2]; [8],> 100 ng/mL
same,"antimalarial activity, overall assessment",[4],less active
same,Activity (%) po,[4]; single 100 mg/kg po,0/0%
same,Activity (%) sc,[4]; single 100 mg/kg sc,0/0%
same,Survival (days) po,[4]; [6],5.3/5.3 days
same,Survival (days) sc,[4]; [7],5.3/5.3 days
"Fc1ccc(C2(c3ccc(F)cc3)OOC3(CCC(c4ccccc4)CC3)O2)cc1 (stereo not drawn) [OZ66, 3,3-Bis(4-fluorophenyl)-8-phenyl-1,2,4-trioxaspiro[4.5]decane]",IC50,"[1]; in vitro, K1 strain, read-out: IC50 (ng/ml) K1",44 ng/mL
same,IC50,"[2]; in vitro, NF54 strain, read-out: IC50 (ng/ml) NF54",36 ng/mL
same,"antimalarial activity, overall assessment",[4],completely inactive
same,Activity (%) po,[4]; single 10 mg/kg po,0/0%
same,Activity (%) sc,[4]; single 10 mg/kg sc,0/0%
same,Tm dec. (° C.),[3],198.5 °C
